From patent US4749710A, “Immunosuppressive agents” (priority 1985, dated 1988)
Where two headings read alike, the source gives them in different places.

Tests used:
Format in all cases: cell-based
[1] = tested on: IgM production by human lymphocytes; assay: Inhibition of IgM production by human lymphocytes in vitro (SAC activation, ELISA); conditions: 8 days, vehicle control 2.49 ± 0.17
Source text: (§1) General Test Description Humoral immunity comprises one of the two major arms of the immune system and generally is beneficial. However, a number of disease states are characterized by a hyperactive immune system responding to self tissue antigens. […] In these diseases it would be important to suppress the humoral immune system.
(§2) In the following studies we used established methods to examine the effect of Vitamin D derivatives on the in vitro production of immunoglobulin (Ig) by human peripheral blood leukocytes (PBL) following polyclonal activation. Immunoglobulin was induced from PBL by co-culturing the PBL with the polyclonal B cell activator Staphylococcus aureus strain Cowan I (SAC) for a period of 8 days. The quantity of Ig produced in the culture supernatants was determined by using an enzyme linked immunosorbent assay (ELISA). The effect of Vitamin D derivatives was determined by comparing the amount of antibody produced in cultures containing Vitamin D derivatives to those cultures containing an appropriate concentration of vehicle (ethanol).
(§3) Solutions of vitamin D derivatives. Stock solutions of vitamin D derivatives were prepared as described previously for the murine CTL experiments.
(§4) INDUCTION OF HUMAN IG SECRETION Human peripheral blood mononuclear leukocytes were prepared from one day old buffy coat preparations obtained from the American Red Cross (Lansing, MI). […] Twenty five ml of this preparation were overlayed onto 25 ml of Ficoll-Paque contained in a 50 ml polypropylene centrifuge tube. After centrifugation at 400×g at 15° C. for 40 min, the cells at the interface of the medium and Ficoll were removed and washed 3 times in 50 ml RPMI medium and centrifuged at 300×g for 10 minutes. After the final centrifugation,the cell pellet was suspended in RPMI medium containing 20% fetal bovine serum (FBS) and 80 μg/ml gentamicin. The number of viable cells was determined by trypan blue exclusion and were then suspended to 2.5×10^6 viable cells per ml in RPMI containing 20% FBS and gentamicin. Human PBL were induced to secrete Ig as follows. One hundred microliters of the PBL suspension and an additional 100 μl of a 1:20,000 (v/v) preparation of SAC suspended in RPMI containing 1% FBS were added to each well of a 96-well microtiter plate. Selected wells were also set up without the addition of SAC to serve as negative controls (spontaneous Ig secretion). Each well then received 20 μl of either the appropriate dilution of Vitamin D derivative in RPMI with 1% ethanol or RPMI with 1% ethanol (vehicle control). The vitamin D derivatives were tested at final concentrations of 10^-5, 10^-6, 10^-7, 10^-8, 10^-9, and 10^-10 M and in all cases the vehicle (ethanol) concentration was 0.1%. All treatments were performed in triplicate. […] The samples were then either assayed immediately or stored at -20° C. until assayed by the ELISA technique described below.
(§5) QUANTITATION OF SECRETED IG (ELISA ASSAY) ELISA plates were prepared for quantitating human IgG and IgM levels in culture supernatants as follows. Affinity purified sheep anti-human IgG and goat anti-human IgM (Cappel, Cochranville, PA) were diluted 1:250 and 1:400 respectively, in carbonate coating buffer (0.05M sodium bicarbonate, 0.05M sodium carbonate, 0.15M sodium chloride). One hundred and fifty microliters of the antibody preparation were added to each well of a 96 well ELISA plate (EIA, Costar). The plates were sealed and incubated overnight at 4° C. and on the following day were washed 3 times with distilled water. Each well then received 350 μl of Dulbecco's PBS containing 1 mg/ml bovine serum albumin (BSA) and 0.5 mg/ml sodium azide. The plates were allowed to incubate for 1 hour at 37° C. and then washed 3 times with Dulbecco's PBS containing 0.5% stock Tween 20 (PBS-Tween) followed by 2 washes with distilled water. The plates were air dried and stored desiccated under a vacuum at 4° C. until use.

[2] = tested on: IgG production by human lymphocytes; assay: Inhibition of IgG production by human lymphocytes in vitro (SAC activation, ELISA); conditions: 8 days, vehicle control 0.78 ± 0.09
Source text: as §1, §2, §3, §4, §5

[3] = tested on: human cytotoxic T-lymphocyte responses; assay: Inhibition of human CTL responses (mixed leukocyte-tumor cultures, HT-144 melanoma, ^51 Cr release); conditions: donor I, 0.01% ethanol, effector to target 6:1; for inhibition at 1 µM / inhibition at 0.1 µM / inhibition at 10 µM: Homo sapiens, T-lymphocyte
Description: Human cells for the tests described below were taken from four donors designated I, II, III, and IV in the tables below.
Stock solutions of Vitamin D derivatives were prepared as they were prepared above in the murine tests.
Human cytotoxic T-lymphocytes were generated in mixed leukocyte-tumor cultures by known methods. Specifically, blood from normal volunteer donors was drawn into heparinized syringes, diluted 1:1 with calcium-magnesium free Hanks' balanced salt solution (Ca-Mg free HBSS), and layered over lymphocyte separation medium (Litton Bionetics, Kensington, MD). After centrifugation at 500xg for 20-30 min at room temperature, peripheral blood mononuclear cells were harvested from the interface. The peripheral blood mononuclear leukocytes were centrifuged and resuspended in Ca-Mg free HBSS and were subsequently separated from platelets by centrifugation at 500xg through a solution of 20% sucrose and 1% human AB serum in Ca-Mg free HBSS. The cells were washed once and finally resuspended in tissue culture medium. […] Cells to be used as stimulator cells in mixed leukocyte-tumor cultures were irradiated with 10,000 rads of gamma irradiation to preclude proliferation in culture. Mixed leukocyte-tumor cell cultures were established in 16 mm tissue culture wells at a final volume of 1.5 ml per well containing 2×10^6 peripheral blood mononuclear leukocytes and 5×10^4 irradiation-inactivated stimulator cells. In order to prevent the generation of nonspecific cytotoxic cells in these cultures, hydrocortisone sodium succinate was added to each culture at a final concentration of 1×10^-5 M. Mixed leukocyte-tumor cultures were incubated for 6 days in a humidified atmosphere of 5% CO2 in air.
Labelled target cells were washed free of unbound isotope by 3 serial washes in tissue culture medium and were finally resuspended at a concentration of 5×10^4 cells per ml.
Assays of human cytotoxic T-lymphocytes were done by known methods. Specifically, one-tenth ml aliquots of ^51 Cr-labelled target cell suspension were added to "half area" microtest plates and were incubated at 37° C. for 18 hours in a humidified atmosphere of 5% CO2 in air to permit the cells to adhere and spread on the floor of each well. Culture medium was then aspirated from each well and was replaced with 0.1 ml of tissue culture medium containing cells harvested from mixed leukocyte-tumor cultures which had been processed as described for murine mixed leukocute cultures, above. Control wells for measurement of spontaneous ^51 Cr release received medium without effector cells and wells for measurement of maximal releasable ^51 Cr received 0.1 ml of 2% sodium dodecyl sulfate in distilled water. After overnight incubation at 37° in a humidified atmosphere of 5% CO2 in air, 0.05 ml of cell-free supernatant was withdrawn from each well and the amount of released ^51 Cr was quantitated using a gamma spectrometer. The percentage of specific ^51 Cr release (CTL activity) and the percent inhibition of CTL activity were calculated with the same formulas used above for the murine CTL assay.
Tests conducted on human cytotoxic T-lymphocyte responses are reported as the mean±standard error of the mean from triplicate ^51 Cr release determinations on pooled cells from duplicate control or test cultures.

C=C1/C(=C\C=C2/CCC[C@]3(C)[C@@H]([C@H](C)CCCC(C)(C)O)CC[C@@H]23)C[C@@H](O)C[C@@H]1F [1α-F--25-OH--D3, 1α-Fluoro-25-hydroxycholecalciferol]
IgM μg per culture (x ± S.E.M.) ([1]; 1 × 10^-6 molar): undetectable
IgM μg per culture (x ± S.E.M.) ([1]; 1 × 10^-7 molar): 0.38 ± 0.30 μg per culture
IgM μg per culture (x ± S.E.M.) ([1]; 1 × 10^-8 molar): 1.83 ± 0.29 μg per culture
IgM μg per culture (x ± S.E.M.) ([1]; 1 × 10^-9 molar): 3.10 ± 0.10 μg per culture
IgM μg per culture (x ± S.E.M.) ([1]; 1 × 10^-10 molar): 4.48 ± 0.75 μg per culture
IgG μg per culture (x ± S.E.M.) ([2]; 1 × 10^-6 molar): undetectable
IgG μg per culture (x ± S.E.M.) ([2]; 1 × 10^-7 molar): 0.08 ± 0.05 μg per culture
IgG μg per culture (x ± S.E.M.) ([2]; 1 × 10^-8 molar): 0.14 ± 0.05 μg per culture
IgG μg per culture (x ± S.E.M.) ([2]; 1 × 10^-9 molar): 0.18 ± 0.001 μg per culture
IgG μg per culture (x ± S.E.M.) ([2]; 1 × 10^-10 molar): 0.45 ± 0.11 μg per culture

C=C1/C(=C/C=C2\CCC[C@]3(C)[C@@H]([C@H](C)CCCC(C)(C)O)CC[C@@H]23)C[C@@H](O)C[C@@H]1O [5,6-trans-1α,25-(OH)2 --D3, 1α,25-Dihydroxy-5,6-trans-cholecalciferol]
IgM μg per culture (x ± S.E.M.) ([1]; 1 × 10^-6 molar): undetectable
IgM μg per culture (x ± S.E.M.) ([1]; 1 × 10^-7 molar): 0.04 ± 0.01 μg per culture
IgM μg per culture (x ± S.E.M.) ([1]; 1 × 10^-8 molar): 0.50 ± 0.21 μg per culture
IgM μg per culture (x ± S.E.M.) ([1]; 1 × 10^-9 molar): 2.36 ± 0.27 μg per culture
IgM μg per culture (x ± S.E.M.) ([1]; 1 × 10^-10 molar): 2.79 ± 0.18 μg per culture
IgG μg per culture (x ± S.E.M.) ([2]; 1 × 10^-6 molar): undetectable
IgG μg per culture (x ± S.E.M.) ([2]; 1 × 10^-7 molar): 0.01 ± 0.001 μg per culture
IgG μg per culture (x ± S.E.M.) ([2]; 1 × 10^-8 molar): 0.21 ± 0.12 μg per culture
IgG μg per culture (x ± S.E.M.) ([2]; 1 × 10^-9 molar): 0.29 ± 0.05 μg per culture
IgG μg per culture (x ± S.E.M.) ([2]; 1 × 10^-10 molar): 0.55 ± 0.16 μg per culture
inhibition at 1 µM ([3]; read-out: Inhibition of CTL activity (%), Test 1, 1 × 10^-6 molar): 62%
inhibition at 0.1 µM ([3]; read-out: Inhibition of CTL activity (%), Test 1, 1 × 10^-7 molar): 62%
inhibition at 10 µM ([3]; read-out: Inhibition of CTL activity (%), Test 2, 1 × 10^-5 molar): 60%
inhibition at 1 µM ([3]; read-out: Inhibition of CTL activity (%), Test 2, 1 × 10^-6 molar): 74%
CTL activity (% specific ^51 Cr release) ([3]; Test 1, 1 × 10^-6 molar): 20 ± 2 % specific ^51 Cr release
CTL activity (% specific ^51 Cr release) ([3]; Test 1, 1 × 10^-7 molar): 20 ± 2 % specific ^51 Cr release
CTL activity (% specific ^51 Cr release) ([3]; Test 2, 1 × 10^-5 molar): 17 ± 3 % specific ^51 Cr release
CTL activity (% specific ^51 Cr release) ([3]; Test 2, 1 × 10^-6 molar): 11 ± 2 % specific ^51 Cr release

C=C1/C(=C\C=C2/CCC[C@]3(C)[C@@H]([C@H](C)CCC(F)(F)C(C)(C)O)CC[C@@H]23)C[C@@H](O)C[C@@H]1O [24,24-(F)2 --1α,25-(OH)2 --D3, 1α,25-Dihydroxy-24,24-difluorocholecalciferol]
IgM μg per culture (x ± S.E.M.) ([1]; 1 × 10^-6 molar): undetectable
IgM μg per culture (x ± S.E.M.) ([1]; 1 × 10^-7 molar): undetectable
IgM μg per culture (x ± S.E.M.) ([1]; 1 × 10^-8 molar): undetectable
IgM μg per culture (x ± S.E.M.) ([1]; 1 × 10^-9 molar): undetectable
IgM μg per culture (x ± S.E.M.) ([1]; 1 × 10^-10 molar): 0.50 ± 0.12 μg per culture
IgG μg per culture (x ± S.E.M.) ([2]; 1 × 10^-6 molar): undetectable
IgG μg per culture (x ± S.E.M.) ([2]; 1 × 10^-7 molar): undetectable
IgG μg per culture (x ± S.E.M.) ([2]; 1 × 10^-8 molar): 0.01 ± 0.003 μg per culture
IgG μg per culture (x ± S.E.M.) ([2]; 1 × 10^-9 molar): 0.02 ± 0.02 μg per culture
IgG μg per culture (x ± S.E.M.) ([2]; 1 × 10^-10 molar): 0.11 ± 0.03 μg per culture
inhibition at 1 µM ([3]; Test 1, 1 × 10^-6 molar, read-out: Inhibition of CTL activity (%)): 71%
inhibition at 0.1 µM ([3]; Test 1, 1 × 10^-7 molar, read-out: Inhibition of CTL activity (%)): 81%
inhibition at 10 µM ([3]; Test 2, 1 × 10^-5 molar, read-out: Inhibition of CTL activity (%)): 83%
inhibition at 1 µM ([3]; Test 2, 1 × 10^-6 molar, read-out: Inhibition of CTL activity (%)): 91%
CTL activity (% specific ^51 Cr release) ([3]; Test 1, 1 × 10^-6 molar): 15 ± 1 % specific ^51 Cr release
CTL activity (% specific ^51 Cr release) ([3]; Test 1, 1 × 10^-7 molar): 10 ± 1 % specific ^51 Cr release
CTL activity (% specific ^51 Cr release) ([3]; Test 2, 1 × 10^-5 molar): 9 ± 2 % specific ^51 Cr release
CTL activity (% specific ^51 Cr release) ([3]; Test 2, 1 × 10^-6 molar): 5 ± 2 % specific ^51 Cr release
